In ChEMBL document CHEMBL1201862, “PubChem BioAssay data set” (2004):
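Five compound concentrations were applied to cells in 96-well plates for 48 hours; endpoints were derived by simple linear interpolation of the resulting dose-response curve. GI50: concentration for 50% inhibition of growth.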 Active and inactive are the calls of the source. Cut-off read from the data, not from the text of the source: active = GI50 up to about 1.1 µM and inactive = higher.

How the values were obtained:
Assay in all cases: DTP human tumour cell line panel, 48 h
A498 = system: A498
COLO 205 = system: COLO 205
DU-145 = system: DU-145
K562 = system: K562
KM12 = system: KM12
M14 = system: M14
MDA-MB-435 = system: MDA-MB-435
Malme-3M = system: Malme-3M
OVCAR-4 = system: OVCAR-4
OVCAR-5 = system: OVCAR-5
OVCAR-8 = system: OVCAR-8
RXF 393 = system: RXF 393
SK-MEL-5 = system: SK-MEL-5
SK-OV-3 = system: SK-OV-3
SNB-19 = system: SNB-19
T47D = system: T47D
HOP-62 = system: HOP-62
SF-295 = system: SF-295
HOP-92 = system: HOP-92

Measured: GI50

CN=C(n1ccnc1)n1ccnc1
inactive: A498 > 100 µM | COLO 205 > 100 µM | DU-145 > 100 µM | K562 > 100 µM | KM12 > 100 µM | M14 > 100 µM | MDA-MB-435 > 100 µM | Malme-3M > 100 µM | OVCAR-4 > 100 µM | OVCAR-5 > 100 µM | OVCAR-8 > 100 µM | RXF 393 > 100 µM | SK-MEL-5 > 100 µM | SK-OV-3 > 100 µM | SNB-19 > 100 µM | T47D > 100 µM

CC1=C(c2ccc(C)cc2)NC(=S)C(C)C(c2ccc(C)cc2)=N1 (stereo unspecified)
inactive: A498 26 µM | COLO 205 > 100 µM | DU-145 > 100 µM | HOP-62 85.7 µM | K562 35.8 µM | KM12 49.7 µM | MDA-MB-435 72.9 µM | Malme-3M 59 µM | OVCAR-4 > 100 µM | OVCAR-5 > 100 µM | OVCAR-8 > 100 µM | RXF 393 14.7 µM | SF-295 67.6 µM | SK-MEL-5 60 µM | SK-OV-3 > 100 µM | SNB-19 > 100 µM | T47D 37.1 µM

COP(=O)(CC(=O)C1OC(OCc2ccccc2)C(OCc2ccccc2)C(OCc2ccccc2)C1OCc1ccccc1)OC (stereo unspecified)
inactive: COLO 205 3.78 µM | DU-145 22 µM | HOP-62 20.1 µM | HOP-92 10.4 µM | K562 4.31 µM | KM12 4.16 µM | M14 10.9 µM | MDA-MB-435 5.38 µM | Malme-3M 9.1 µM | OVCAR-4 2.19 µM | OVCAR-5 17.6 µM | OVCAR-8 5.87 µM | RXF 393 2.62 µM | SF-295 5.36 µM | SK-MEL-5 4.23 µM | SK-OV-3 27.8 µM | SNB-19 11.4 µM | T47D 4.3 µM

Nc1n[nH]c2c(C(=O)Nc3ccc(Cl)cc3)c(N)n(N)c(=O)c12
inactive: A498 > 100 µM | COLO 205 > 100 µM | DU-145 > 100 µM | K562 > 100 µM | KM12 > 100 µM | M14 > 100 µM | MDA-MB-435 > 100 µM | Malme-3M > 100 µM | OVCAR-4 > 100 µM | OVCAR-5 > 100 µM | OVCAR-8 > 100 µM | RXF 393 > 100 µM | SK-MEL-5 > 100 µM | SK-OV-3 > 100 µM | SNB-19 > 100 µM | T47D > 100 µM

CC(=O)OCC1OC(Nc2ccc3nc(C)n(-c4ccccc4)c(=O)c3c2)C(OC(C)=O)C(OC(C)=O)C1OC(C)=O (stereo unspecified)
inactive: A498 > 50 µM | COLO 205 > 50 µM | DU-145 > 50 µM | HOP-62 > 50 µM | K562 32.1 µM | KM12 > 50 µM | MDA-MB-435 > 50 µM | Malme-3M > 50 µM | OVCAR-4 > 50 µM | OVCAR-5 > 50 µM | OVCAR-8 > 50 µM | RXF 393 > 50 µM | SF-295 > 50 µM | SK-MEL-5 > 50 µM | SNB-19 > 50 µM | T47D > 50 µM

BC(=O)NC(CC(C)C)C(=O)NC1c2ccsc2C(=O)C1O.CN(C)C (stereo unspecified)
inactive: A498 > 100 µM | COLO 205 > 100 µM | DU-145 > 100 µM | HOP-62 > 100 µM | K562 > 100 µM | KM12 > 100 µM | M14 > 100 µM | MDA-MB-435 > 100 µM | Malme-3M > 100 µM | OVCAR-4 > 100 µM | OVCAR-5 > 100 µM | OVCAR-8 > 100 µM | RXF 393 > 100 µM | SF-295 > 100 µM | SK-MEL-5 > 100 µM | SK-OV-3 > 100 µM | SNB-19 > 100 µM | T47D > 100 µM
